# Results reported in US10703764B2, “Benzopiperazine compositions as BET bromodomain inhibitors” (FORMA Therapeutics, Inc., priority 2013, dated 2020).
# Where two headings read alike, the source gives them in different places.
# Key:
# BRD4 BD2 = biological target: T1, BRD4 BD2 (Homo sapiens, UniProt O60885); assay: AlphaScreen binding assay, BRD4 Bromodomain 2
# T1 construct: made in house
# In short: (§1)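 An AlphaScreen competition format was used with His-BRD4 BD1 or BD2 and biotin-H4 K5/8/12/16-acetyl peptide, each at matched final levels of 50 nM (BD1) or 100 nM (BD2). Incubation in HEPES/NaCl buffer with 0.1% BSA and 0.01% Triton X-100 ran ≥1 h before IC50 determination.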
# BRD4 BD1 = biological target: T2, BRD4 BD1 (Homo sapiens, UniProt O60885); assay: AlphaScreen binding assay, BRD4 Bromodomain 1
# T2 construct: made in house
# In short: as §1
# MV4-11 cells = assay: Oncology cell growth assay (3-day proliferation, CellTiter-Glo); format: cell-based; settings: Homo sapiens, AML cell line MV4-11, 72 hours, compounds grouped by IC50 range, read-out: MV4-11 IC50 (inhibition of proliferation, gIC50)
# In short: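 Luminescence from CellTiter-Glo served as the growth read-out after MV4-11 cells (3000/well) were cultured with compound for 72 hours. Final concentrations spanned 10 to 0.0045 μM in 3-fold steps. gIC50 values were derived by four-parameter logistic fitting relative to DMSO and cell-free controls.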
Compound,IC50 (BRD4 BD2) [nM],IC50 (BRD4 BD1) [nM],"IC50 (MV4-11 cells; MV4-11, 72 h) [nM]",IC50 (MV4-11 cells) [nM]
"CC(=O)N1c2ccc(-c3cnn(C4CC4)c3)cc2N(c2nn(C)c3ncccc23)C[C@@H]1C [Example I-184, 1-[(2S)-6-(1-cyclopropyl-1H-pyrazol-4-yl)-2-methyl-4-{1-methyl-1H-pyrazolo[3,4-b]pyridin-3-yl}-1,2,3,4-tetrahydroquinoxalin-1-yl]ethan-1-one]",50 to 500,100 to 1000,100 to 500,–
CC(=O)N1c2ccc(-c3cnn(Cc4cc(C)on4)c3)cc2N(C(=O)OC(C)C)C[C@@H]1C [Example I-665],50 to 500,100 to 1000,100 to 500,–
CCN(CC)S(=O)(=O)c1cc(-c2ccc3c(c2)N(C(=O)C2CCC2)C[C@H](C)N3C(C)=O)ccc1OC [Example I-1113],50 to 500,1000 to 10000,100 to 500,–
CCS(=O)(=O)c1cccc(-c2ccc3c(c2)N(C(=O)C2CCC2)C[C@H](C)N3C(C)=O)c1 [Example I-1091],50 to 500,1000 to 10000,> 500,–
CC(=O)N1c2ccc(-c3cnn(C4CCNCC4)c3)cc2N(C(=O)Oc2ccccn2)C[C@@H]1C [Example I-1332],< 50,100 to 1000,–,< 100
CC(=O)N1c2ccc(-c3ccc(NS(=O)(=O)C4CC4)cc3)cc2N(C(=O)c2ccco2)C[C@@H]1C [Example I-287],< 50,100 to 1000,< 100,–
CC(C)OC(=O)N1C[C@H](C)N(C(=O)C2CC2)c2ccc(-c3cnn(C[C@@H]4CCNC4)c3)cc21 [Example I-689],50 to 500,100 to 1000,> 500,–
COc1ccc(-c2ccc3c(c2)N(C(=O)OC2CCOCC2)C[C@H](C)N3C(C)=O)cc1NS(C)(=O)=O [Example I-1272],50 to 500,100 to 1000,100 to 500,–
CC(=O)N1c2ccc(-c3ccc(S(N)(=O)=O)cc3)cc2N(C(=O)OC2CCCCC2)C[C@@H]1C [Example I-1233],50 to 500,100 to 1000,100 to 500,–
CCS(=O)(=O)c1ccc(-c2ccc3c(c2)N(C(=O)C2CCC2)C[C@H](C)N3C(C)=O)cc1 [Example I-1028],50 to 500,1000 to 10000,> 500,–
CC(=O)N1c2ccc(-c3cnn(CCCO)c3)cc2N(C(=O)C2CC2)C[C@@H]1C [Example I-673],50 to 500,100 to 1000,100 to 500,–
CC(=O)N1c2ccc(-c3cnn(CCF)c3)cc2N(C(=O)C2CC2)C[C@@H]1C [Example I-671],50 to 500,100 to 1000,100 to 500,–
CC(=O)N1c2ccc(-c3cnn(CC#N)c3)cc2N(C(=O)OC(C)C)C[C@@H]1C [Example I-607],50 to 500,100 to 1000,100 to 500,–
"CC(=O)N1c2ccc(-c3cnn(C4COC4)c3)cc2N(C(=O)OCC(Cl)Cl)C[C@@H]1C [Example I-62, (S)-2,2-dichloroethyl 4-acetyl-3-methyl-7-(1-(oxetan-3-yl)-1H-pyrazol-4-yl)-3,4-dihydroquinoxaline-1(2H)-carboxylate]",50 to 500,100 to 1000,100 to 500,–
CC(=O)N1c2ccc(-c3ccc(N4CCCS4(=O)=O)c(F)c3)cc2N(C(=O)OC(C)C)C[C@@H]1C [Example I-1156],50 to 500,100 to 1000,100 to 500,–
"CC(=O)N1c2ccc(-c3cnn(C4CCNCC4)c3)cc2N(C(=O)Oc2ccc(F)cc2F)C[C@@H]1C [Example I-191, 2,4-difluorophenyl (S)-4-acetyl-3-methyl-7-(1-(piperidin-4-yl)-1H-pyrazol-4-yl)-3,4-dihydroquinoxaline-1(2H)-carboxylate]",< 50,100 to 1000,–,100 to 500
CC(=O)N1c2ccc(-c3cnn(CCC#N)c3)cc2N(C(=O)C2CC2)C[C@@H]1C [Example I-650],50 to 500,100 to 1000,100 to 500,–
"CC(=O)N1c2ccc(-c3cnn(Cc4cccnc4)c3)cc2N(C(=O)C2CC2)C[C@@H]1C [Example I-122, (S)-1-(4-(cyclopropanecarbonyl)-2-methyl-6-(1-(pyridin-3-ylmethyl)-1H-pyrazol-4-yl)-3,4-dihydroquinoxalin-1(2H)-yl)ethan-1-one]",< 50,100 to 1000,100 to 500,–
CCCS(=O)(=O)c1ccc(-c2ccc3c(c2)N(C(=O)OC(C)C)C[C@H](C)N3C(C)=O)cc1 [Example I-1073],50 to 500,100 to 1000,100 to 500,–
CC(=O)N1c2ccc(-c3ccc4cnn(C)c4c3)cc2N(C(=O)c2ccco2)C[C@@H]1C [Example I-843],< 50,100 to 1000,100 to 500,–
CC(=O)N1c2ccc(-c3cnn(C4CC4)c3)cc2N(C(=O)Oc2cc(C)ccc2F)C[C@@H]1C [Example I-1198],50 to 500,100 to 1000,100 to 500,–

Compound,IC50 (BRD4 BD2) [nM],IC50 (BRD4 BD1) [nM],"IC50 (MV4-11 cells; MV4-11, 72 h) [nM]",IC50 (MV4-11 cells) [nM]
CC(=O)N1c2ccc(-c3cccc(NS(C)(=O)=O)c3)cc2N(C(=O)c2ccco2)C[C@@H]1C [Example I-844],< 50,100 to 1000,100 to 500,–
CC(C)OC(=O)N1C[C@H](C)N(C(=O)C2CC2)c2ccc(-c3ccc(C(=O)N4CCN(S(C)(=O)=O)CC4)cc3)cc21 [Example I-572],> 500,100 to 1000,100 to 500,–
CC(=O)N1c2ccc(-c3cnn(CC(C)(C)O)c3)cc2N(C(=O)OC(C)C)C[C@@H]1C [Example I-327],50 to 500,100 to 1000,100 to 500,–
CC(=O)N1c2ccc(-c3cccc(S(=O)(=O)C4CC4)c3)cc2N(C(=O)OC2CCCCC2)C[C@@H]1C [Example I-1243],50 to 500,100 to 1000,100 to 500,–
CCOC(=O)N1C[C@H](C)N(C(C)=O)c2ccc(-c3ccc(S(=O)(=O)NC(C)(C)C)cc3)cc21 [Example I-1129],50 to 500,1000 to 10000,100 to 500,–
"CC(=O)N1c2cc(Cl)c(-c3ccc(S(C)(=O)=O)cc3)cc2N(C(=O)OC(C)C)C[C@@H]1C [Example I-218, Isopropyl (S)-4-acetyl-6-chloro-3-methyl-7-(4-(methylsulfonyl)phenyl)-3,4-dihydroquinoxaline-1(2H)-carboxylate]",> 500,1000 to 10000,> 500,–
CC(=O)N1c2ccc(-c3ccc4c(c3)N(S(C)(=O)=O)CCC4)cc2N(C(=O)OC(C)C)C[C@@H]1C [Example I-1185],50 to 500,100 to 1000,100 to 500,–
CC(=O)N1c2ccc(-c3cnn(C4CC4)c3)cc2N(C(=O)Oc2cccnc2)C[C@@H]1C [Example I-510],< 50,< 100,100 to 500,–
CCOC(=O)N1C[C@H](C)N(C(C)=O)c2ccc(-c3ccc(NS(C)(=O)=O)c(F)c3)cc21 [Example I-1182],50 to 500,100 to 1000,> 500,–
COc1ccc(C#N)cc1OC(=O)N1C[C@H](C)N(C(C)=O)c2ccc(-c3cnn(C4CC4)c3)cc21 [Example I-526],50 to 500,100 to 1000,100 to 500,–
"CC(=O)N1c2ccc(-c3cnn(CCO)c3)cc2N(C(=O)OC(CF)CF)C[C@@H]1C [Example I-83, (S)-1,3-difluoropropan-2-yl 4-acetyl-7-(1-(2-hydroxyethyl)-1H-pyrazol-4-yl)-3-methyl-3,4-dihydroquinoxaline-1 (2H)-carboxylate]",50 to 500,100 to 1000,> 500,–
CC(=O)N1c2ccc(-c3cnn(C)c3)cc2N(C(=O)c2ccco2)C[C@@H]1C [Example I-822],< 50,100 to 1000,100 to 500,–
CCOC(=O)N1C[C@H](C)N(C(C)=O)c2ccc(-c3ccc(F)c(S(C)(=O)=O)c3)cc21 [Example I-1100],50 to 500,1000 to 10000,> 500,–
CC(=O)N1c2ccc(-c3cnn(CC(F)(F)F)c3)cc2N(C(=O)OC(C)C)C[C@@H]1C [Example I-604],50 to 500,< 100,100 to 500,–
CC(=O)N1c2ccc(-c3cnn(C(C)(C)CO)c3)cc2N(C(=O)Oc2ccc(F)cc2F)C[C@@H]1C [Example I-1014],< 50,100 to 1000,100 to 500,–
CC(=O)N1c2ccc(-c3ccc(NC(N)=O)cc3)cc2N(C(=O)c2ccco2)C[C@@H]1C [Example I-280],< 50,1000 to 10000,100 to 500,–
COC(=O)N1c2ccc(-c3cnn(CCS(C)(=O)=O)c3)cc2N(C(=O)OC(C)C)C[C@@H]1C [Example I-318],50 to 500,100 to 1000,> 500,–
"CC(=O)N1c2cc(NS(C)(=O)=O)c(-c3cnn(C4CC4)c3)cc2N(C(=O)OC(C)C)C[C@@H]1C [Example I-213, Isopropyl (S)-4-acetyl-7-(1-cyclopropyl-1H-pyrazol-4-yl)-3-methyl-6-(methylsulfonamido)-3,4-dihydroquinoxaline-1(2H)-carboxylate]",> 500,> 10000,> 500,–
CC(=O)N1c2ccc(-c3cccc(C(=O)N4CCOCC4)c3)cc2N(C(=O)c2ccco2)C[C@@H]1C [Example I-838],< 50,100 to 1000,100 to 500,–
CCCCOC(=O)N1C[C@H](C)N(C(C)=O)c2ccc(-c3ccc(S(C)(=O)=O)cc3)cc21 [Example I-231],50 to 500,100 to 1000,100 to 500,–
CC(=O)N1c2ccc(-c3ccc(C(=O)N4CCNCC4)cc3)cc2N(C(=O)OC(C)C)C[C@@H]1C [Example I-557],50 to 500,100 to 1000,100 to 500,–
